Values joined by “and” are separate entries in the source; they are usually repeats but may differ in a detail not shown here. Equal entries are not always repeated. Where two headings read alike, the source gives them in different places.
What was measured:
whole blood = test: eicosanoid release from LPS-stimulated whole blood; format: cell-based, human; parameters: LTB4 / 5-HETE / 11,12-EET / 12-HETE: unit not given here; conditions: for 15-HETE level, whole blood / PGE2 level, whole blood / TxB2 level, whole blood: individual replicate
Text: In whole blood, bacterial lipopolysaccharide (LPS) stimulated the release of PGE2, thromboxane B2 (TXB2), and 15-hydroxyeicosatetraenoic acid (HETE). […] The levels of leukotriene B4 (LTB4), 12-HETE, 5-HETE and 11,12-epoxyeicosatrienoic acid (EET) were not affected by LPS stimulation but increased when exogenous AA was included, irrespective of the presence of GK420 (Fig. S1a).
Fig. 3 Ex vivo suppression of eicosanoid production by GK420. a Eicosanoid levels (pmol/mL) in the plasma of whole blood pretreated with vehicle (DMSO), 3, 10 or 30 µM GK420,) 10 µM arachidonyl trifluoromethyl ketone (ATK), or 1 μM indomethacin (Indo) before stimulation with 1 µg/mL LPS for 24 h. […] All box and whisker plots show the mean (center line), stdev (box), and min and max values (whiskers) from 4 biological replicates. P-values were determined using RM-one way ANOVA with Dunnett’s correction for multiple comparisons.
Aliquots of 0.4 mL of heparinized whole blood were mixed with 1.6 mL of serum-free RPMI cultivation medium with- or without indomethacin (# I7378, Sigma-Aldrich), GK420, or arachidonyl trifluoromethyl ketone (ATK) (Cayman #62120), prior to the addition of lipopolysaccharides (LPS) (1 μg/mL) to activate the cPLA2α enzyme (LPS was from E. coli 026:B6 γ-irradiated, #L2654, Sigma-Aldrich). Exogenous arachidonic acid (5–10 µM) (#3555, Sigma-Aldrich) was added after 23.5 h, for the final 30 mins of the 24 h stimulation. Following treatment (24 h, 37 °C, 5% CO2), the diluted blood was centrifuged (5992 × g for 10 min at 4 °C) to isolate the plasma from the cell fraction. Plasma samples were stored at −80 °C until analysis. Samples were analyzed at the Lipid Maps Consortium, UCSD according to the standard methods. 200 µL of sample was subjected to solid phase extraction of the eicosanoids using the StrataX solid phase extraction columns from Phenomenex and analyzed by UHPLC-MS/MS using full standards mix.

Jurkat E6.1 cells = test: cell viability, CTG assay, Jurkat E6.1; format: cell-based, human; conditions: for viability at 0.125 µM: Jurkat E6.1, 0.125 µM; for cell viability (0 µM = 100): listed as AVX420; for cell viability (Control = 100): Jurkat cells
Text: Data are the mean ± stdev of 3 biological replicates. […] Data are the mean ± stdev of 3 biological replicates.
Bjørn Tore Gjertsen (University of Bergen, Norway). […] The cell lines were not authenticated.

[1] = 10 uM + LPS + AA, listed as AVX420

SMILES: CCCCCCCOc1ccc(OCC(=O)c2nc(C(=O)OC)cs2)cc1 [GK420]
- 15-HETE level, whole blood (whole blood; 3 uM + LPS): 0.23 pmol/mL and 1.1 pmol/mL and 0.41 pmol/mL and 0.42 pmol/mL
- PGE2 level, whole blood (whole blood; 3 uM + LPS): 0.2 pmol/mL and 2.5 pmol/mL and 0.7 pmol/mL and 0.9 pmol/mL
- TxB2 level, whole blood (whole blood; 3 uM + LPS): 1 pmol/mL and 10.1 pmol/mL and 3.2 pmol/mL and 4.5 pmol/mL
- 15-HETE level, whole blood (whole blood; 10 uM + LPS + AA): 68.15 pmol/mL and 72.88 pmol/mL and 78.71 pmol/mL and 78.11 pmol/mL
- PGE2 level, whole blood (whole blood; 10 uM + LPS + AA): 11.8 pmol/mL and 18.9 pmol/mL and 15.6 pmol/mL and 18.2 pmol/mL
- TxB2 level, whole blood (whole blood; 10 uM + LPS + AA): 14.6 pmol/mL and 27.5 pmol/mL and 24.1 pmol/mL and 18.1 pmol/mL
- 5-HETE (whole blood; [1]): 59.11 and 60.82 and 63.51 and 71.56
- 11,12-EET (whole blood; [1]): 12.46 and 11.85 and 10.02 and 12.34
- 12-HETE (whole blood; [1]): 73 and 139.7 and 83.5 and 77.9
- LTB4 (whole blood; [1]): 0.6 and 0.8
- 15-HETE level, whole blood (whole blood; 10 uM + LPS): 0.65 pmol/mL and 0.26 pmol/mL and 0.51 pmol/mL and 0.31 pmol/mL
- PGE2 level, whole blood (whole blood; 10 uM + LPS): 1.7 pmol/mL and 0.3 pmol/mL and 0.7 pmol/mL and 0.1 pmol/mL
- TxB2 level, whole blood (whole blood; 10 uM + LPS): 8.4 pmol/mL and 1.9 pmol/mL and 2.9 pmol/mL and 0.8 pmol/mL
- 15-HETE level, whole blood (whole blood; 30 uM + LPS): 0.31 pmol/ml (2×) and 0.35 pmol/ml and 0.42 pmol/ml
- PGE2 level, whole blood (whole blood; 30 uM + LPS): 0.05 pmol/ml and 0.4 pmol/ml and 0.1 pmol/ml (2×)
- TxB2 level, whole blood (whole blood; 30 uM + LPS): 0.2 pmol/mL and 3.4 pmol/mL and 1.2 pmol/mL and 1.5 pmol/mL
- production of PGE2, TXB2 and 15-HETE (whole blood; whole blood, LPS): suppressed their production
- production of PGE2, TXB2 and 15-HETE with excess free AA (whole blood; whole blood, LPS + exogenous free AA): no effect
- viability at 0.007 µM (Jurkat E6.1 cells; Homo sapiens, Jurkat E6.1, 24 h, Jurkat E6.1, 0.007 µM, 24H, read-out: cell viability (0 µM = 100)): 102%
- viability at 0.015 µM (Jurkat E6.1 cells; Homo sapiens, Jurkat E6.1, 24 h, Jurkat E6.1, 0.015 µM, 24H, read-out: cell viability (0 µM = 100)): 96%
- viability at 0.031 µM (Jurkat E6.1 cells; Homo sapiens, Jurkat E6.1, 24 h, Jurkat E6.1, 0.031 µM, 24H, read-out: cell viability (0 µM = 100)): 99%
- viability at 0.062 µM (Jurkat E6.1 cells; Homo sapiens, Jurkat E6.1, 24 h, Jurkat E6.1, 0.062 µM, 24H, read-out: cell viability (0 µM = 100)): 103%
- viability at 0.125 µM (Jurkat E6.1 cells; Homo sapiens, Jurkat E6.1, 24 h, 24H, read-out: cell viability (0 µM = 100)): 101%
- viability at 0.25 µM (Jurkat E6.1 cells; Homo sapiens, Jurkat E6.1, 24 h, Jurkat E6.1, 0.25 µM, 24H, read-out: cell viability (0 µM = 100)): 90%
- viability at 0.5 µM (Jurkat E6.1 cells; Homo sapiens, Jurkat E6.1, 24 h, Jurkat E6.1, 0.5 µM, 24H, read-out: cell viability (0 µM = 100)): 51%
- viability at 1 µM (Jurkat E6.1 cells; Homo sapiens, Jurkat E6.1, 24 h, Jurkat E6.1, 1 µM, 24H, read-out: cell viability (0 µM = 100)): 28%
- viability at 2 µM (Jurkat E6.1 cells; Homo sapiens, Jurkat E6.1, 24 h, Jurkat E6.1, 2 µM, 24H, read-out: cell viability (0 µM = 100)): 16%
- viability at 0.007 µM (Jurkat E6.1 cells; Homo sapiens, Jurkat E6.1, 48 h, Jurkat E6.1, 0.007 µM, 48H, read-out: cell viability (0 µM = 100)): 101%
- viability at 0.015 µM (Jurkat E6.1 cells; Homo sapiens, Jurkat E6.1, 48 h, Jurkat E6.1, 0.015 µM, 48H, read-out: cell viability (0 µM = 100)): 99%
- viability at 0.031 µM (Jurkat E6.1 cells; Homo sapiens, Jurkat E6.1, 48 h, Jurkat E6.1, 0.031 µM, 48H, read-out: cell viability (0 µM = 100)): 100%
- viability at 0.062 µM (Jurkat E6.1 cells; Homo sapiens, Jurkat E6.1, 48 h, Jurkat E6.1, 0.062 µM, 48H, read-out: cell viability (0 µM = 100)): 104%
- viability at 0.125 µM (Jurkat E6.1 cells; Homo sapiens, Jurkat E6.1, 48 h, 48H, read-out: cell viability (0 µM = 100)): 104%
- viability at 0.25 µM (Jurkat E6.1 cells; Homo sapiens, Jurkat E6.1, 48 h, Jurkat E6.1, 0.25 µM, 48H, read-out: cell viability (0 µM = 100)): 79%
- viability at 0.5 µM (Jurkat E6.1 cells; Homo sapiens, Jurkat E6.1, 48 h, Jurkat E6.1, 0.5 µM, 48H, read-out: cell viability (0 µM = 100)): 39%
- viability at 1 µM (Jurkat E6.1 cells; Homo sapiens, Jurkat E6.1, 48 h, Jurkat E6.1, 1 µM, 48H, read-out: cell viability (0 µM = 100)): 16%
- viability at 2 µM (Jurkat E6.1 cells; Homo sapiens, Jurkat E6.1, 48 h, Jurkat E6.1, 2 µM, 48H, read-out: cell viability (0 µM = 100)): 9%
- viability at 4 µM (Jurkat E6.1 cells; Homo sapiens, Jurkat E6.1, 48 h, Jurkat E6.1, 4 µM, 48H, read-out: cell viability (0 µM = 100)): 5%
- viability at 0.007 µM (Jurkat E6.1 cells; Homo sapiens, Jurkat E6.1, 72 h, Jurkat E6.1, 0.007 µM, 72H, read-out: cell viability (0 µM = 100)): 100%
- viability at 0.015 µM (Jurkat E6.1 cells; Homo sapiens, Jurkat E6.1, 72 h, Jurkat E6.1, 0.015 µM, 72H, read-out: cell viability (0 µM = 100)): 97%
- viability at 0.031 µM (Jurkat E6.1 cells; Homo sapiens, Jurkat E6.1, 72 h, Jurkat E6.1, 0.031 µM, 72H, read-out: cell viability (0 µM = 100)): 90%
- viability at 0.062 µM (Jurkat E6.1 cells; Homo sapiens, Jurkat E6.1, 72 h, Jurkat E6.1, 0.062 µM, 72H, read-out: cell viability (0 µM = 100)): 87%
- viability at 0.125 µM (Jurkat E6.1 cells; Homo sapiens, Jurkat E6.1, 72 h, 72H, read-out: cell viability (0 µM = 100)): 87%
- viability at 0.25 µM (Jurkat E6.1 cells; Homo sapiens, Jurkat E6.1, 72 h, Jurkat E6.1, 0.25 µM, 72H, read-out: cell viability (0 µM = 100)): 76%
- viability at 0.5 µM (Jurkat E6.1 cells; Homo sapiens, Jurkat E6.1, 72 h, Jurkat E6.1, 0.5 µM, 72H, read-out: cell viability (0 µM = 100)): 31%
- viability at 1 µM (Jurkat E6.1 cells; Homo sapiens, Jurkat E6.1, 72 h, Jurkat E6.1, 1 µM, 72H, read-out: cell viability (0 µM = 100)): 10%
- viability at 0.5 µM (Jurkat E6.1 cells; Homo sapiens, Jurkat E6.1, Jurkat cells, 0.5 µM, VEH, read-out: cell viability (Control = 100)): 50%
- viability at 1 µM (Jurkat E6.1 cells; Homo sapiens, Jurkat E6.1, Jurkat cells, 1 µM, VEH, read-out: cell viability (Control = 100)): 34%
- cell viability (0 µM = 100) (Jurkat E6.1 cells; Jurkat E6.1, 0.007 µM, 24H): 98 and 97
- cell viability (0 µM = 100) (Jurkat E6.1 cells; Jurkat E6.1, 0.007 µM, 48H): 98 and 97
- cell viability (0 µM = 100) (Jurkat E6.1 cells; Jurkat E6.1, 0.007 µM, 72H): 98
- cell viability (0 µM = 100) (Jurkat E6.1 cells; Jurkat E6.1, 0.015 µM, 48H): 98 and 97
- cell viability (0 µM = 100) (Jurkat E6.1 cells; Jurkat E6.1, 0.031 µM, 24H): 95
- cell viability (0 µM = 100) (Jurkat E6.1 cells; Jurkat E6.1, 0.031 µM, 48H): 98
- cell viability (0 µM = 100) (Jurkat E6.1 cells; Jurkat E6.1, 0.031 µM, 72H): 95
- cell viability (0 µM = 100) (Jurkat E6.1 cells; Jurkat E6.1, 0.062 µM, 24H): 94
- cell viability (0 µM = 100) (Jurkat E6.1 cells; Jurkat E6.1, 0.062 µM, 48H): 93
- cell viability (0 µM = 100) (Jurkat E6.1 cells; Jurkat E6.1, 0.062 µM, 72H): 98
- cell viability (0 µM = 100) (Jurkat E6.1 cells; Jurkat E6.1, 0.25 µM, 72H): 61
- cell viability (0 µM = 100) (Jurkat E6.1 cells; Jurkat E6.1, 0.5 µM, 24H): 41 and 43
- cell viability (0 µM = 100) (Jurkat E6.1 cells; Jurkat E6.1, 0.5 µM, 72H): 30 and 21
- cell viability (0 µM = 100) (Jurkat E6.1 cells; Jurkat E6.1, 1 µM, 24H): 19 and 21
- cell viability (0 µM = 100) (Jurkat E6.1 cells; Jurkat E6.1, 1 µM, 48H): 14 and 13
- cell viability (0 µM = 100) (Jurkat E6.1 cells; Jurkat E6.1, 1 µM, 72H): 8
- cell viability (0 µM = 100) (Jurkat E6.1 cells; Jurkat E6.1, 2 µM, 48H): 7
- cell viability (0 µM = 100) (Jurkat E6.1 cells; Jurkat E6.1, 4 µM, 48H): 3
- effect on viability (Jurkat E6.1 cells; Jurkat E6.1, CTG): strong dose-dependent effect
- cell viability (Control = 100) (Jurkat E6.1 cells; 0.5 µM, VEH, listed as AVX420, 0.5 µM): 46 and 55
- cell viability (Control = 100) (Jurkat E6.1 cells; 1 µM, VEH, listed as AVX420, 1 µM): 21

Source: paper PMC11696576, “Next generation thiazolyl ketone inhibitors of cytosolic phospholipase A2 α for targeted cancer therapy” (Nature Communications, 2025)
